Assay results taken from patent US11466016B2, “Pharmaceutical compounds” (priority 2018, dated 2022).
Counter-ions that a name gives are not always drawn. Like-named read-outs stand apart in the source and are kept apart here.

Molecular target: SHP2 (Homo sapiens (Human), UniProt Q06124)
Test: SHP2 Biochemical Assay (DiFMUP conversion, pIRS1 activating peptide)
Protocol: SHP2 activity was monitored by measuring the conversion of the surrogate substrate 6,8-difluoromethylumbelliferyl phosphate (DiFMUP) to the fluorescent product, 6,8-difluoromethylumbelliferone (DiFMU).
SHP2 was pre-incubated with test compounds and the activating peptide pIRS1 (H2N-LN(pY)IDLDLV-(PEG)8-LST(pY)ASINFQK-amide) for 30 min, prior to addition of the […] (DiFMUP), (Thermo Fisher D6567). […] Rates of reaction were then measured over 30 min by monitoring fluorescence on a BMG Pherastar reader at excitation 360 nm/emission 450 nm. IC50 values were calculated from the normalized dose-response plots using four parameter logistic curve fit.

[1] = DiFMUP substrate, 0.25 μM pIRS1 peptide, 30 min pre-incubation, average where more than one data point, read-out: SHP2 (IC50)

Chain of SHP2 (Q06124 whole entry): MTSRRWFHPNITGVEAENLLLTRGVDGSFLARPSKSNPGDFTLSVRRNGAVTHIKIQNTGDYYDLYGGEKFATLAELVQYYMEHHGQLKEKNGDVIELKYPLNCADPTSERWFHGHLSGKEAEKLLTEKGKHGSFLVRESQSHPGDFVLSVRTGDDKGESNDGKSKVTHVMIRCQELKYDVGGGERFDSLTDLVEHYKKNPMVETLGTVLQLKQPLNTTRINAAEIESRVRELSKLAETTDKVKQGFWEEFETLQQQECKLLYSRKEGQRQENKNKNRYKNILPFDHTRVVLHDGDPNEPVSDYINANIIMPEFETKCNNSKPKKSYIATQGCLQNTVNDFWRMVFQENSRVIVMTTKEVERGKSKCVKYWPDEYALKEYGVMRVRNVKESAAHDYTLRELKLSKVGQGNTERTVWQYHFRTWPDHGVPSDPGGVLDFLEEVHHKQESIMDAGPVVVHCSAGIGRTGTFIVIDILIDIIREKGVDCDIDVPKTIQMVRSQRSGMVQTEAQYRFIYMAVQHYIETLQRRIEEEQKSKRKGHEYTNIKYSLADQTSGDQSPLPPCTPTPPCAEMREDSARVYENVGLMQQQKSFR

Row | Compound | IC50 [1] [nM] | IC50 [nM]
1 | N[C@H]1C[C@H]2CC[C@@H](C1)N2c1cnc2c(-c3ccc4oc(=O)[nH]c4c3Cl)c[nH]c2n1 [Example 19, 5-{3-[endo-3-amino-8-azabicyclo[3.2.1]octan-8-yl]-5H-pyrrolo[2,3-b]pyrazin-7-yl}-4-chloro-2,3-dihydro-1,3-benzoxazol-2-one, hydrochloride salt] | 47 | –
2 | Cc1nc2c(-c3ccc4nn(C)cc4c3Cl)c[nH]c2nc1N1[C@@H]2CC[C@H]1C[C@H](N)C2 [Example 20, exo-8-[7-(4-chloro-2-methyl-2H-indazol-5-yl)-2-methyl-5H-pyrrolo[2,3-b]pyrazin-3-yl]-8-azabicyclo[3.2.1]octan-3-amine] | 10 | –
3 | Cc1nc2ccc(-c3c[nH]c4nc(N5[C@@H]6CC[C@H]5C[C@@H](N)C6)cnc34)c(Cl)c2c(=O)[nH]1 [Example 21, 6-{3-[endo-3-amino-8-azabicyclo[3.2.1]octan-8-yl]-5H-pyrrolo[2,3-b]pyrazin-7-yl}-5-chloro-2-methyl-3,4-dihydroquinazolin-4-one] | 11 | –
4 | CN(C)c1ccc2ccc(-c3c[nH]c4nc(N5[C@@H]6CC[C@H]5C[C@@H](N)C6)cnc34)c(Cl)c2n1 [Example 22, 7-{3-[endo-3-amino-8-azabicyclo[3.2.1]octan-8-yl]-5H-pyrrolo[2,3-b]pyrazin-7-yl}-8-chloro-N,N-dimethylquinolin-2-amine, hydrochloride salt] | 26 | –
5 | N[C@H]1C[C@H]2CC[C@@H](C1)N2c1cnc2c(-c3ccc4[nH]c(=O)sc4c3Cl)c[nH]c2n1 [Example 23, 6-{3-[endo-3-amino-8-azabicyclo[3.2.1]octan-8-yl]-5H-pyrrolo[2,3-b]pyrazin-7-yl}-7-chloro-2,3-dihydro-1,3-benzothiazol-2-one, hydrochloride salt] | 5.2 | –
6 | Cn1nc2ccc(-c3c[nH]c4nc(N5[C@@H]6CC[C@H]5C[C@@H](N)C6)cnc34)c(Cl)c2c1Cl [Example 24, endo-8-[7-(3,4-dichloro-2-methyl-2H-indazol-5-yl)-5H-pyrrolo[2,3-b]pyrazin-3-yl]-8-azabicyclo[3.2.1]octan-3-amine, methanesulfonic acid salt] | 4.3 | –
7 | Cn1cc2c(Cl)c(-c3c[nH]c4nc(N5CCC6(CNC6)C(F)(F)C5)cnc34)ccc2n1 [Example 25, 7-[7-(4-chloro-2-methyl-2H-indazol-5-yl)-5H-pyrrolo[2,3-b]pyrazin-3-yl]-5,5-difluoro-2,7-diazaspiro[3.5]nonane, hydrochloride salt] | 52 | –
8 | CCn1cc2c(Cl)c(-c3c[nH]c4nc(N5[C@@H]6CC[C@H]5C[C@@H](N)C6)cnc34)ccc2n1 [Example 26, endo-8-[7-(4-chloro-2-ethyl-2H-indazol-5-yl)-5H-pyrrolo[2,3-b]pyrazin-3-yl]-8-azabicyclo[3.2.1]octan-3-amine, hydrochloride salt] | 14 | –
9 | CCn1cc2c(Cl)c(-c3c[nH]c4nc(N5[C@@H]6CC[C@H]5C[C@H](N)C6)cnc34)ccc2n1 [Example 28, exo-8-[7-(4-chloro-2-ethyl-2H-indazol-5-yl)-5H-pyrrolo[2,3-b]pyrazin-3-yl]-8-azabicyclo[3.2.1]octan-3-amine, hydrochloride salt] | 9.6 | –
10 | Cn1cc2c(Cl)c(-c3c[nH]c4nc(N5CC[C@@H](N)[C@H](F)C5)cnc34)ccc2n1 [Example 29, (3R,4R)-1-[7-(4-chloro-2-methyl-2H-indazol-5-yl)-5H-pyrrolo[2,3-b]pyrazin-3-yl]-3-fluoropiperidin-4-amine, hydrochloride salt] | 41 | –
11 | Cn1cc2c(Cl)c(-c3c[nH]c4nc(N5CC[C@H](N)[C@@H](F)C5)cnc34)ccc2n1 [Example 30, (3S,4S)-1-[7-(4-chloro-2-methyl-2H-indazol-5-yl)-5H-pyrrolo[2,3-b]pyrazin-3-yl]-3-fluoropiperidin-4-amine, hydrochloride salt] | 150 | –
12 | Cn1cc2c(Cl)c(-c3c[nH]c4nc(N5CC[C@H](N)[C@@H](O)C5)cnc34)ccc2n1 [Example 31, (3S,4S)-4-amino-1-[7-(4-chloro-2-methyl-2H-indazol-5-yl)-5H-pyrrolo[2,3-b]pyrazin-3-yl]piperidin-3-ol, hydrochloride salt] | 22 | –
13 | Cn1cc2c(Cl)c(-c3c[nH]c4nc(N5CC[C@@H](N)[C@@H](F)C5)cnc34)ccc2n1 [Example 32, (3S,4R)-1-[7-(4-chloro-2-methyl-2H-indazol-5-yl)-5H-pyrrolo[2,3-b]pyrazin-3-yl]-3-fluoropiperidin-4-amine, hydrochloride salt] | 56 | –
14 | Cn1cc2c(Cl)c(-c3c[nH]c4nc(N5CC[C@H](N)[C@H](F)C5)cnc34)ccc2n1 [Example 33, (3R,4S)-1-[7-(4-chloro-2-methyl-2H-indazol-5-yl)-5H-pyrrolo[2,3-b]pyrazin-3-yl]-3-fluoropiperidin-4-amine, hydrochloride salt] | 33 | –
15 | Cn1cc2c(Cl)c(-c3c[nH]c4nc(N5[C@@H]6CC[C@H]5C[C@@H](N)C6)c(CO)nc34)ccc2n1 [Example 34, {3-[endo-3-amino-8-azabicyclo[3.2.1]octan-8-yl]-7-(4-chloro-2-methyl-2H-indazol-5-yl)-5H-pyrrolo[2,3-b]pyrazin-2-yl}methanol, hydrochloride salt] | 13 | –
16 | N[C@H]1C[C@H]2CC[C@@H](C1)N2c1cnc2c(-c3ccc4ccc(=O)[nH]c4c3Cl)c[nH]c2n1 [Example 35, 7-{3-[endo-3-amino-8-azabicyclo[3.2.1]octan-8-yl]-5H-pyrrolo[2,3-b]pyrazin-7-yl}-8-chloro-1,2-dihydroquinolin-2-one, hydrochloride salt] | 190 | –
17 | Cn1nc2ccc(-c3c[nH]c4nc(N5[C@@H]6CC[C@H]5C[C@@H](N)C6)cnc34)c(Cl)c2c1CO [Example 37, (5-{3-[endo-3-amino-8-azabicyclo[3.2.1]octan-8-yl]-5H-pyrrolo[2,3-b]pyrazin-7-yl}-4-chloro-2-methyl-2H-indazol-3-yl)methanol, methanesulfonic acid salt] | 51 | –
18 | Cn1cc2c(F)c(-c3c[nH]c4nc(N5[C@@H]6CC[C@H]5C[C@@H](N)C6)cnc34)ccc2n1 [Example 38, endo-8-[7-(4-fluoro-2-methyl-2H-indazol-5-yl)-5H-pyrrolo[2,3-b]pyrazin-3-yl]-8-azabicyclo[3.2.1]octan-3-amine] | 53 | –
19 | N[C@H]1C[C@H]2CC[C@@H](C1)N2c1cnc2c(-c3ccc4nc(C5CCOC5)sc4c3Cl)c[nH]c2n1 (stereo partly drawn) [Example 39, endo-8-{7-[7-chloro-2-(oxolan-3-yl)-1,3-benzothiazol-6-yl]-5H-pyrrolo[2,3-b]pyrazin-3-yl}-8-azabicyclo[3.2.1]octan-3-amine, dihydrochloride salt] | – | 6.9
20 | Cc1nc2c(-c3ccc4nn(C)cc4c3Cl)n[nH]c2nc1N1[C@@H]2CC[C@H]1C[C@H](N)C2 [Example 40, exo-8-[3-(4-chloro-2-methyl-2H-indazol-5-yl)-5-methyl-1H-pyrazolo[3,4-b]pyrazin-6-yl]-8-azabicyclo[3.2.1]octan-3-amine, dihydrochloride salt] | 10 | –
21 | Cn1nc2ccc(-c3c[nH]c4nc(N5[C@@H]6CC[C@H]5C[C@H](N)C6)cnc34)c(Cl)c2c1Cl [Example 41, exo-8-[7-(3,4-dichloro-2-methyl-2H-indazol-5-yl)-5H-pyrrolo[2,3-b]pyrazin-3-yl]-8-azabicyclo[3.2.1]octan-3-amine, hydrochloride salt] | 3.6 | –
22 | COCc1nc2ccc(-c3c[nH]c4nc(N5[C@@H]6CC[C@H]5C[C@@H](N)C6)cnc34)c(Cl)c2s1 [Example 43, endo-8-{7-[7-chloro-2-(methoxymethyl)-1,3-benzothiazol-6-yl]-5H-pyrrolo[2,3-b]pyrazin-3-yl}-8-azabicyclo[3.2.1]octan-3-amine, hydrochloride salt] | 5.8 | –
23 | N[C@H]1C[C@H]2CC[C@@H](C1)N2c1cnc2c(-c3ccc4nc(CO)sc4c3Cl)c[nH]c2n1 [Example 44, (6-{3-[endo-3-amino-8-azabicyclo[3.2.1]octan-8-yl]-5H-pyrrolo[2,3-b]pyrazin-7-yl}-7-chloro-1,3-benzothiazol-2-yl)methanol, hydrochloride salt] | 6.8 | –
24 | Cc1nc2c(-c3ccc4nn(C)cc4c3Cl)[nH]nc2nc1N1[C@@H]2CC[C@H]1CC(N)C2 (stereo partly drawn) [Example 48, endo-8-[3-(4-Chloro-2-methyl-2H-indazol-5-yl)-5-methyl-1H-pyrazolo[3,4-b]pyrazin-6-yl]-8-azabicyclo[3.2.1]octan-3-amine, hydrochloride salt] | 17 | –
25 | CN(C)C(=O)Cn1cc2c(Cl)c(-c3c[nH]c4nc(N5[C@@H]6CC[C@H]5C[C@@H](N)C6)cnc34)ccc2n1 [Example 49, 2-(5-{3-[endo-3-amino-8-azabicyclo[3.2.1]octan-8-yl]-5H-pyrrolo[2,3-b]pyrazin-7-yl}-4-chloro-2H-indazol-2-yl)-N,N-dimethylacetamide] | 15 | –
26 | Cn1cc2c(Cl)c(-c3c[nH]c4nc(N5[C@@H]6CC[C@H]5C[C@@H](N)C6)cnc34)cc(F)c2n1 [Example 50, endo-8-[7-(4-chloro-7-fluoro-2-methyl-2H-indazol-5-yl)-5H-pyrrolo[2,3-b]pyrazin-3-yl]-8-azabicyclo[3.2.1]octan-3-amine] | 31 | –
27 | Cn1nc2ccc(-c3c[nH]c4nc(N5[C@@H]6CC[C@H]5C[C@@H](N)C6)cnc34)c(Cl)c2n1 [Example 51, endo-8-[7-(4-chloro-2-methyl-2H-1,2,3-benzotriazol-5-yl)-5H-pyrrolo[2,3-b]pyrazin-3-yl]-8-azabicyclo[3.2.1]octan-3-amine] | 29 | –
28 | Cc1nc2ccc(-c3c[nH]c4nc(N5[C@@H]6CC[C@H]5C[C@@H](N)C6)cnc34)c(Cl)c2c(=O)n1C [Example 52, 6-{3-[endo-3-amino-8-azabicyclo[3.2.1]octan-8-yl]-5H-pyrrolo[2,3-b]pyrazin-7-yl}-5-chloro-2,3-dimethyl-3,4-dihydroquinazolin-4-one, methanesulfonic acid salt] | – | 13
